Test results published in patent US7943748B2, “Glucitol derivative, prodrug thereof and salt thereof, and therapeutic agent containing the same for diabetes” (Chugai Seiyaku Kabushiki Kaisha, priority 2004, dated 2011).

What was measured:
[1] = Test for determining blood half-life in rat; type: in vivo; conditions: iv; SD male rat, intravenously administered, dosage 10 mg/kg, plasma, LC-MS/MS, non-compartmental analysis, half-life in the final layer
Protocol: Test for Determining Blood Half-Life in Rat
A test compound was intravenously administered to a SD male rat (8-weeks old, Japan SLC) and the blood was collected 2 minutes, 5 minutes, 15 minutes, 30 minutes, 1 hour, 2 hours, 4 hours, 6 hours and 8 hours after administration, respectively. The obtained blood was centrifuged to obtain plasma. The plasma sample (0.01 mL) and water (0.4 mL) were added to a tube added with an internal standard substance of phenyloin (250 ng), and diethyl ether (2 mL) was added thereto and the obtained solution was stirred for five minutes, and then centrifuged for 10 minutes and an organic layer was recovered and subjected to nitrogen dryness, and a mobile phase was added to the obtained solid to dissolve it and the resulting solution was taken as a sample for determination.
The sample for determination was injected into LC-MS/MS and determined under the following conditions. • Column: ODS (2.0×150 mm) • Mobile Phase Acetonitrile/10 mM ammonium acetate=4/6 (v/v) • Flow Rate: 0.2 mL/min • Amount of Sample Injected: 10 μL • Mass Analysis: ESI (+)
The plasma concentration obtained by the LC-MS/MS method was subjected to non-compartmental analysis with the use of the WinNonlin standard made by Pharsight Corporation to calculate pharmacokinetic parameters.

human SGLT2 = molecular target: T1, human SGLT2 (Homo sapiens, UniProt P31639); experiment: Inhibition of methyl-α-D-glucopyranoside intake in human SGLT2 stable expression CHO cells; type: cell-based; conditions: methyl-α-D-(U-14C)glucopyranoside intake, 37° C., 45 minutes
T1 construct: expressed in transfected cells; host or cells: CHO-K1
T1 sequence (P31639 1-672): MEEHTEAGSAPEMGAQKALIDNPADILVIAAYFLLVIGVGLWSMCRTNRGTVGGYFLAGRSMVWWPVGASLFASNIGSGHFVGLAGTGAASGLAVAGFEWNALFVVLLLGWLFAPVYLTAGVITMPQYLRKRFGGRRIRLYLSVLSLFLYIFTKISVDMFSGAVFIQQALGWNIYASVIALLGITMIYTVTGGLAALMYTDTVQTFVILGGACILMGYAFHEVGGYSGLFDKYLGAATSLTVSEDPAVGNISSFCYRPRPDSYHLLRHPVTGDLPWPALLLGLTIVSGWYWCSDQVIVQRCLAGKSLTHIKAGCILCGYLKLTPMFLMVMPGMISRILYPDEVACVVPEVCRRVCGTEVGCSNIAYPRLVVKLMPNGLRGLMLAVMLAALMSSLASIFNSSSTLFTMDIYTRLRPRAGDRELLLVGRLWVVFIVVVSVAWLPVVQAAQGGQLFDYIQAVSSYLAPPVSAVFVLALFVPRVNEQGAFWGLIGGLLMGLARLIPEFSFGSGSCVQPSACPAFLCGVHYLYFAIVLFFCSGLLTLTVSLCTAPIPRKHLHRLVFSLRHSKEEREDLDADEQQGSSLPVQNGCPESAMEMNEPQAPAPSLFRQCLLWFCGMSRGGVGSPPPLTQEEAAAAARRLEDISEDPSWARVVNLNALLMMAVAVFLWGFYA
Protocol: Test for Confirming Action of Inhibiting Human Na^+-Glucose Co-Transporters (SGLT1 and SGLT2)
(2) Preparation of Human SGLT2 Expression Vector
PCR was performed by KOD+DNA polymerase by taking a human kidney-derived cDNA library (a product of Clontech) as a template with the use of a synthesized DNA primer to amplify human SGLT2 cDNA. […] From the proliferated E. coli, a plasmid was purified according to the usual way. By taking this plasmid as a template, PCR was performed by KOD+DNA polymerase with the use of a synthetic DNA primer into which restriction enzyme recognition sites had been introduced to amplify human SGLT2 cDNA (a fragment added with Xho I recognition site on the upstream side and a Hind III recognition site on the downstream side). This amplified fragment was subjected to Xho I and Hind III digestion to connect the digested fragments to their recognition sites of the expression vector pcDNA 3.1(−) with the use of the Rapid DNA Ligation kit. The connected expression vector was introduced into E. coli competent cells (DH5α) and proliferated in an ampicillin-containing LB medium to obtain a human SGLT2 expression vector according to the usual way.
(3) Preparation of Human SGLT1 Stable Expression Cell and Human SGLT2 Stable Expression Cell […]

Row | half-life [1] | IC50 (human SGLT2) | SMILES
1 | 8.21 h | 0.018 µM | OC[C@H]1O[C@@H](c2cc(Cc3cc4ccccc4s3)cc3ccccc23)[C@H](O)[C@@H](O)[C@@H]1O [Example 1, (2S,3R,4R,5S,6R)-2-[3-(Benzo[b]thiophen-2-ylmethyl)-naphthalen-1-yl]-6-hydroxymethyl-tetrahydropyran-3,4,5-triol]
2 |  | 0.018 µM | Cc1ccc(Cc2cc([C@@H]3O[C@H](CO)[C@@H](O)[C@H](O)[C@H]3O)c3ccccc3c2)s1 [Example 8, (2R,3S,4R,5R,6S)-2-hydroxymethyl-6-[3-(5-methylthiophen-2-ylmethyl)naphthalen-1-yl]tetrahydropyran-3,4,5-triol]
